Each structure is given as a SMILES string. Read-outs that look alike come from different tables or passages of the source. Where only a bound is given, the exact number is not on record here.

The values that follow come from US20250152585A1, “PHARMACEUTICAL COMPOUND” (Duke Street Bio Limited, priority 2022, published 2025).

For assay [1], the target named is T1, full length N-terminally FLAG-tagged PARP1 (Homo sapiens, UniProt P09874). In words: PARP1 biochemical DELFIA assay (auto-PARylation). Also on record: recombinant full length human N-terminally FLAG-tagged PARP1. To be noted: binned IC50, PARP1 biochemical DELFIA assay.
Assay [2] deals with T1, full length N-terminally FLAG-tagged PARP1. The assay is described as follows: PARP1 probe displacement HTRF assay. To be noted: for Selectivity: PARP1 over PARP2, ratio Kd (PARP2)/Kd (PARP1), probe displacement HTRF; for Kd: binned Kd, PARP1 probe displacement HTRF.
Assay [3] concerns the target T2, N-terminally FLAG-tagged PARP2 (amino acids 1-583) (Homo sapiens, UniProt Q9UGN5).
T2 construct: N-terminally FLAG-tagged PARP2 (amino acids 1-583)
The assay is described as follows: PARP2 probe displacement HTRF assay. It is filed as binding. Conditions: binned Kd, PARP2 probe displacement HTRF. On the procedure: Data analysis was performed identical as for PARP1.

T1 sequence (P09874 whole entry): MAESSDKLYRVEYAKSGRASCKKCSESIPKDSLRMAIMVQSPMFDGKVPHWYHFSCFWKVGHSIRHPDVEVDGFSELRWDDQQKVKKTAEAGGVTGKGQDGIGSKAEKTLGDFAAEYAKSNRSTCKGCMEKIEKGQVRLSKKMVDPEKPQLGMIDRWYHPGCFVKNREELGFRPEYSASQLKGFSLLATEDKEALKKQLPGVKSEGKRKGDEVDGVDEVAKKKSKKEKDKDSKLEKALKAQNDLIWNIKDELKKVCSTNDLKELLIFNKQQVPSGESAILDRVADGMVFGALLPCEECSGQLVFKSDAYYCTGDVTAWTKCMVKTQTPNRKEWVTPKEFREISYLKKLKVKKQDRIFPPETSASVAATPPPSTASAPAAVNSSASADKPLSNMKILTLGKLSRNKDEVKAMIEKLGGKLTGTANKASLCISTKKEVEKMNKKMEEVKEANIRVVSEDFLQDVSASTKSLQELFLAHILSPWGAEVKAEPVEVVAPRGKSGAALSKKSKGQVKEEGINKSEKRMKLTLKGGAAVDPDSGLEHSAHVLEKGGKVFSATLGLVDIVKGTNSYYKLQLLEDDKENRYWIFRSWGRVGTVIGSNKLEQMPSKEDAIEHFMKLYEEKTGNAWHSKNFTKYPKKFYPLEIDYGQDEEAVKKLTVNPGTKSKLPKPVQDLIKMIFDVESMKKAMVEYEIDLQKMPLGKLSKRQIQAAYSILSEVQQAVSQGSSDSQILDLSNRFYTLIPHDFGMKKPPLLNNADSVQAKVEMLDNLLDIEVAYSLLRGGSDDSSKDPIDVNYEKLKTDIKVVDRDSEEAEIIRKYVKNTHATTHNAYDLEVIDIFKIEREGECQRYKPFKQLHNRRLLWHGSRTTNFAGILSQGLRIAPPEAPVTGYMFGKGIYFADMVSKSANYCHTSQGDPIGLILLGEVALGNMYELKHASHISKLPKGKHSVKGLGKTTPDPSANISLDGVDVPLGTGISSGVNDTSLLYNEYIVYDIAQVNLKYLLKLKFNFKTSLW
T2 sequence (Q9UGN5 whole entry, the tested form may be a part): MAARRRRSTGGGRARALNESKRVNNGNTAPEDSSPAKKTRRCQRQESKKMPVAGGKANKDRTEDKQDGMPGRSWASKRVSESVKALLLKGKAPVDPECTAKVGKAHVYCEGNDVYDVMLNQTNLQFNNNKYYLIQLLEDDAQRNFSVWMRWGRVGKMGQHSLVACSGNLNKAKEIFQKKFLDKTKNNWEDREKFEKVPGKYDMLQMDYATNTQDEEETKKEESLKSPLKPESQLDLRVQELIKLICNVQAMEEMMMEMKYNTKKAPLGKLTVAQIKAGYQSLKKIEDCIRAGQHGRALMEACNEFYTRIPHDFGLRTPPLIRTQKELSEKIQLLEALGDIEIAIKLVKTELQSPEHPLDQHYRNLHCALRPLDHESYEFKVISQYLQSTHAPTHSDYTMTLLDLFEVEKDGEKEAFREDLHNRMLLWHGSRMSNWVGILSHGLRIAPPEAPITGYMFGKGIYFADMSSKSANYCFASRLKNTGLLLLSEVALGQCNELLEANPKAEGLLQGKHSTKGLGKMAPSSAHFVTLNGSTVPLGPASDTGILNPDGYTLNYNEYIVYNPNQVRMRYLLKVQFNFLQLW

Regarding `CNC(=O)c1ccc(N2CCC(N3CCC(c4cc5cccc(F)c5c(=O)[nH]4)C3)CC2)c(Cl)n1` (single isomer, unassigned) [Compound 183a], the IC50 in assay [1] is less than 10 nM. For the same molecule, the Selectivity result in assay [2] is given as “+++ (+++ indicate a value of at least 100)”. Moreover, the Kd was less than 10 nM in assay [2] (read-out: PARP1 HTRF) and 1000 to 10000 nM in assay [3].

Take `CNC(=O)c1ccc(N2CCC(N3CCC(c4cc5cccc(F)c5c(=O)[nH]4)C3)CC2)c(F)n1` (single isomer, unassigned) [Compound 184a, 6-fluoro-5-[4-[3-(8-fluoro-1-oxo-2H-isoquinolin-3-yl)pyrrolidin-1-yl]piperidin-1-yl]-N-methylpyridine-2-carboxamide]: the IC50 in assay [1] was less than 10 nM. Further, the figures for the Kd in assay [2] (PARP1 HTRF) and in assay [3] were less than 10 nM and 1000 to 10000 nM, respectively. Further, the Selectivity result in assay [2] was “+++ (+++ indicate a value of at least 100)”.

With `CNC(=O)c1ccc(N2CCC(N3CCCC(c4nc5sc6c(c5c(=O)[nH]4)CCC6)C3)CC2)cn1` (single isomer, unassigned) [Compound 185a], the IC50 in assay [1] was less than 10 nM. In addition, the Selectivity result in assay [2] is recorded as “+++ (+++ indicate a value of at least 100)”. Further, the Kd in assay [2] (read-out: PARP1 HTRF) was less than 10 nM; in assay [3], 100 to 1000 nM.

Consider `CNC(=O)c1ccc(N2CCC(N3CCCC(c4nc5sc6c(c5c(=O)[nH]4)CCC6)C3)CC2)cn1` (single isomer, unassigned) [Compound 185b], for which the IC50 in assay [1] was in the range of 10 to 100 nM. The Selectivity result in assay [2] was “+ (+ indicates a value of 10 to less than 50)”. Further, the Kd in assay [2] (read-out: PARP1 HTRF) was 100 to 1000 nM; in assay [3] it was 1000 to 10000 nM.

In the case of `CNC(=O)c1ccc(N2CCC(N3CCC(c4cc5c(F)cc(F)cc5c(=O)[nH]4)C3)CC2)cn1` (single isomer, unassigned) [Compound 186a], the IC50 in assay [1] was less than 10 nM. The Selectivity entry in assay [2] was “+++ (+++ indicate a value of at least 100)”. Moreover, the figures for the Kd in assay [2] (read-out: PARP1 HTRF) and in assay [3] were less than 10 nM and 100 to 1000 nM, respectively.

`CNC(=O)c1ccc(N2CCC(N3CCC(c4nc5c(c(C(F)(F)F)nn5C)c(=O)[nH]4)C3)CC2)cn1` (single isomer, unassigned) [Compound 187a]: in assay [1], the half-maximal inhibitory concentration (IC50) lay in the range of 10 to 100 nM. Further, the Selectivity entry in assay [2] is given as “− (− indicates a value of less than 10)”. Moreover, the Kd in assay [2] (read-out: PARP1 HTRF) lay in the range of 10 to 100 nM; in assay [3], 100 to 1000 nM.

Regarding `CNC(=O)c1ccc(N2CCC(N3CCC(c4nc5c(c(C(F)(F)F)nn5C)c(=O)[nH]4)C3)CC2)cn1` (single isomer, unassigned) [Compound 187b], in assay [1], the IC50 was less than 10 nM. The Selectivity result in assay [2] was “− (− indicates a value of less than 10)”. For the same molecule, the Kd in assay [2] (read-out: PARP1 HTRF) and in assay [3] was less than 10 nM each time.

For `CNC(=O)c1ccc(N2CCC(N3CCC(c4ccc(CC(F)(F)F)c(=O)[nH]4)C3)CC2)cn1` (single isomer, unassigned) [Compound 188a], the IC50 in assay [1] was 100 to 1000 nM. The Selectivity result in assay [2] is listed as “+ (+ indicates a value of 10 to less than 50)”. Besides, the results for the Kd in assay [2] (read-out: PARP1 HTRF) and in assay [3] were 100 to 1000 nM and more than 10000 nM, respectively.

Regarding `CNC(=O)c1ccc(N2CCC(N3CCC(c4ccc(CC(F)(F)F)c(=O)[nH]4)C3)CC2)cn1` (single isomer, unassigned) [Compound 188b], in assay [1], the IC50 is less than 10 nM. For the same molecule, the Selectivity entry in assay [2] is reported as “+++ (+++ indicate a value of at least 100)”. The results for the Kd in assay [2] (read-out: PARP1 HTRF) and in assay [3] were less than 10 nM and 100 to 1000 nM, respectively.

For the molecule `CNC(=O)c1ccc(N2CCC(N3CCC(c4nc5sc6c(c5c(=O)[nH]4)CCC6)C3)CC2)cn1` (single isomer, unassigned) [Compound 189a], the IC50 in assay [1] was in the range of 10 to 100 nM. The Selectivity result in assay [2] is listed as “− (− indicates a value of less than 10)”. Further, the Kd fell in the range of 10 to 100 nM in assay [2] (read-out: PARP1 HTRF) and 100 to 1000 nM in assay [3].

Regarding `CNC(=O)c1ccc(N2CCC(N3CCC(c4nc5sc6c(c5c(=O)[nH]4)CCC6)C3)CC2)cn1` (single isomer, unassigned) [Compound 189b], in assay [1], the IC50 was less than 10 nM. Further, in assay [2], the Selectivity entry is “++ (++ indicates a value of 50 to less than 100)”. Moreover, the Kd in assay [2] (read-out: PARP1 HTRF) is less than 10 nM; in assay [3] it was 10 to 100 nM.

For the molecule `CNC(=O)c1ccc(N2CCC(N3CCCC(c4nc5c(c(C(F)(F)F)nn5C)c(=O)[nH]4)C3)CC2)cn1` (single isomer, unassigned) [Compound 190a], the IC50 in assay [1] lay within 100 to 1000 nM. Further, in assay [2], the Selectivity result is “+ (+ indicates a value of 10 to less than 50)”. Further, the Kd is 100 to 1000 nM in assay [2] (read-out: PARP1 HTRF) and 1000 to 10000 nM in assay [3].

As for `CNC(=O)c1ccc(N2CCC(N3CCCC(c4nc5c(c(C(F)(F)F)nn5C)c(=O)[nH]4)C3)CC2)cn1` (single isomer, unassigned) [Compound 190b], the IC50 in assay [1] was less than 10 nM. Besides, the Selectivity result in assay [2] is “++ (++ indicates a value of 50 to less than 100)”. The Kd in assay [2] (read-out: PARP1 HTRF) was less than 10 nM; in assay [3], 10 to 100 nM.

As to `CNC(=O)c1ccc(N2CCC(N3CCC(c4cc5[nH]nc(C(F)(F)F)c5c(=O)[nH]4)C3)CC2)cn1` (single isomer, unassigned) [Compound 194a, N-methyl-5-(4-(3-(4-oxo-3-(trifluoromethyl)-4,5-dihydro-1H-pyrazolo[4,3-c]pyridin-6-yl)pyrrolidin-1-yl)piperidin-1-yl)picolinamide], in assay [1], the IC50 was in the range of 10 to 100 nM. Also, the Kd in assay [2] (PARP1 HTRF) was 10 to 100 nM; in assay [3], 1000 to 10000 nM. For the same molecule, the Selectivity result in assay [2] was “+ (+ indicates a value of 10 to less than 50)”.

For the molecule `CNC(=O)c1ccc(N2CCC(N3CCC(c4cc5[nH]nc(C(F)(F)F)c5c(=O)[nH]4)C3)CC2)cn1` (single isomer, unassigned) [Compound 194b, N-methyl-5-(4-(3-(4-oxo-3-(trifluoromethyl)-4,5-dihydro-1H-pyrazolo[4,3-c]pyridin-6-yl)pyrrolidin-1-yl)piperidin-1-yl)picolinamide], the IC50 in assay [1] is less than 10 nM. Moreover, the Kd in assay [2] (PARP1 HTRF) is less than 10 nM; in assay [3] it was 10 to 100 nM. Further, in assay [2], the Selectivity result is listed as “+ (+ indicates a value of 10 to less than 50)”.

For the molecule `CNC(=O)c1ccc(N2CCC(N3CCC(c4cc5ccc(F)cc5c(=O)[nH]4)C3)CC2)c(C)n1` (single isomer, unassigned) [Compound 196b], in assay [1], the IC50 is less than 10 nM. Also, the Selectivity result in assay [2] is on record as “+++ (+++ indicate a value of at least 100)”. Moreover, the Kd in assay [2] (read-out: PARP1 HTRF) was less than 10 nM; in assay [3] it was 1000 to 10000 nM.

Regarding `CNC(=O)c1ccc(N2CCC(N3CCC(c4cc5ccc(F)cc5c(=O)[nH]4)C3)CC2)nn1` (single isomer, unassigned) [Compound 197b], the IC50 in assay [1] lay within 10 to 100 nM. In addition, in assay [2], the Selectivity result is listed as “+++ (+++ indicate a value of at least 100)”. Further, the Kd lay within 10 to 100 nM in assay [2] (read-out: PARP1 HTRF) and 1000 to 10000 nM in assay [3].

In the case of `CNC(=O)c1ccc(N2CCC(N3CCCC(c4nc5sc(C)c(C)c5c(=O)[nH]4)C3)CC2)cn1` (single isomer, unassigned) [Compound 199a], in assay [1], the IC50 is less than 10 nM. In assay [2], the Selectivity result was “+++ (+++ indicate a value of at least 100)”. Besides, the results for the Kd in assay [2] (read-out: PARP1 HTRF) and in assay [3] were less than 10 nM and 100 to 1000 nM, respectively.

Regarding `CNC(=O)c1ccc(N2CCC(N3CCCC(c4nc5sc(C)c(C)c5c(=O)[nH]4)C3)CC2)cn1` (single isomer, unassigned) [Compound 199b], the IC50 in assay [1] was in the range of 100 to 1000 nM. For the same molecule, in assay [2], the Selectivity result is on record as “+ (+ indicates a value of 10 to less than 50)”. In addition, the Kd in assay [2] (read-out: PARP1 HTRF) was 100 to 1000 nM; in assay [3], more than 10000 nM.

For `CNC(=O)c1ccc(N2CCC(N3CCC(c4ccc(Cl)c(=O)[nH]4)C3)CC2)cn1` (single isomer, unassigned) [Compound 201a], in assay [1], the IC50 is 100 to 1000 nM. Also, the Selectivity result in assay [2] is “+ (+ indicates a value of 10 to less than 50)”. Further, the Kd in assay [2] (read-out: PARP1 HTRF) is 100 to 1000 nM; in assay [3] it was more than 10000 nM.

In the case of `CNC(=O)c1ccc(N2CCC(N3CCC(c4ccc(Cl)c(=O)[nH]4)C3)CC2)cn1` (single isomer, unassigned) [Compound 201b], in assay [1], the IC50 is less than 10 nM. In assay [2], the Selectivity result is “+++ (+++ indicate a value of at least 100)”. The Kd in assay [2] (read-out: PARP1 HTRF) was less than 10 nM; in assay [3], 1000 to 10000 nM.

Turning to `CNC(=O)c1cc(C)c(N2CCC(N3CCC(c4cc5ccc(F)cc5c(=O)[nH]4)C3)CC2)cn1` (single isomer, unassigned) [Compound 202b], the half-inhibitory concentration (IC50) in assay [1] was less than 10 nM. The Selectivity result in assay [2] is reported as “+ (+ indicates a value of 10 to less than 50)”. Further, the results for the Kd in assay [2] (read-out: PARP1 HTRF) and in assay [3] were less than 10 nM and 10 to 100 nM, respectively.

`CNC(=O)c1cc(C)c(N2CCC(N3CCC(c4cc5ccccc5c(=O)[nH]4)C3)CC2)c(C)n1` (single isomer, unassigned) [Compound 205a]: the IC50 in assay [1] was in the range of 100 to 1000 nM. Besides, the Selectivity entry in assay [2] is “+ (+ indicates a value of 10 to less than 50)”. Also, the Kd is 100 to 1000 nM in assay [2] (read-out: PARP1 HTRF) and more than 10000 nM in assay [3].

In the case of `CNC(=O)c1cc(C)c(N2CCC(N3CCC(c4cc5ccccc5c(=O)[nH]4)C3)CC2)c(C)n1` (single isomer, unassigned) [Compound 205b], in assay [1], the IC50 fell in the range of 10 to 100 nM. Also, the Selectivity result in assay [2] is recorded as “+ (+ indicates a value of 10 to less than 50)”. The Kd in assay [2] (read-out: PARP1 HTRF) is 10 to 100 nM; in assay [3] it was 1000 to 10000 nM.

Turning to `CNC(=O)c1ccc(N2CCC(N3CCC(c4cc5cccc(F)c5c(=O)[nH]4)C3)CC2)c(C)n1` (single isomer, unassigned) [Compound 206a], the IC50 in assay [1] was less than 10 nM. Further, the Selectivity result in assay [2] is on record as “+++ (+++ indicate a value of at least 100)”. The figures for the Kd in assay [2] (read-out: PARP1 HTRF) and in assay [3] were less than 10 nM and 100 to 1000 nM, respectively.
